*1 amine or outer side, *2 acyl side, *3 side chain or, on linkers, in order; H or OH if unused. Where a SMILES comes first, the peptide text is derived from it. [ ]: non-standard residue; d: D form. The star is where a group is joined. NHCH2(1,3-C6H4)CH2CO = O=C(Cc1cccc(CN[*:1])c1)[*:2]; F2Pmp = N[C@@H](Cc1ccc(C(F)(F)P(=O)(O)O)cc1)C(=O)O; Phenylacetyl(4-OH,3-OMe) = COc1cc(CC(=O)*)ccc1O; Benzoyl(3-Br,4-Me) = Cc1ccc(C(=O)*)cc1Br; X1 = Cc1ncsc1-c1ccc([C@H](C)N*)cc1; Hyp = O=C(O)[C@@H]1C[C@@H](O)CN1; Tle = CC(C)(C)[C@H](N)C(=O)O
What was measured:
[1] = target: T1, PTP1B (Homo sapiens, UniProt P18031); assay: PTP activity assay with pNPP substrate (IC50, Ki, mode of inhibition); assay type: biochemical; details: pNPP 2 mM, pH 7.0, 25° C.; read-out: IC50, nM PTP1B
T1 sequence (P18031 1-435): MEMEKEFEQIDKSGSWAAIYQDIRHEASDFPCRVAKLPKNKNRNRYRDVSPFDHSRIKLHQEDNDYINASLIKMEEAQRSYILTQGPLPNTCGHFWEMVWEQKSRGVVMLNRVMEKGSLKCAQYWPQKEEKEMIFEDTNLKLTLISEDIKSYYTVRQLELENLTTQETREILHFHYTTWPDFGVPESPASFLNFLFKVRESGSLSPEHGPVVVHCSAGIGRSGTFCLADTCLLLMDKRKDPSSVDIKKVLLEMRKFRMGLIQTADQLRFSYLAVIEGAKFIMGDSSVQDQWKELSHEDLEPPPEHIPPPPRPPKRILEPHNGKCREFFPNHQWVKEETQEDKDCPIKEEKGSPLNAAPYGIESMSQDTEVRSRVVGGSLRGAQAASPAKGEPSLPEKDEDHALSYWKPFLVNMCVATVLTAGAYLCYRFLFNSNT
In short: (§1)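 Hydrolysis of pNPP measured spectrophotometrically in pH 7.0 DMG buffer (EDTA, NaCl, DTT, BSA) at 25 °C, 0.4 nM enzyme. IC50 at 2 mM pNPP (Km) over an inhibitor titration; mode of inhibition and Ki from rates across varied pNPP and inhibitor levels, fitted to enzyme kinetic models.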

[2] = target: T2, TC-PTP (Homo sapiens, UniProt P17706); assay: as above; assay type: biochemical; details: pNPP 2 mM, pH 7.0, 25° C.; read-out: IC50, nM TC-PTP
T2 sequence (P17706 1-415): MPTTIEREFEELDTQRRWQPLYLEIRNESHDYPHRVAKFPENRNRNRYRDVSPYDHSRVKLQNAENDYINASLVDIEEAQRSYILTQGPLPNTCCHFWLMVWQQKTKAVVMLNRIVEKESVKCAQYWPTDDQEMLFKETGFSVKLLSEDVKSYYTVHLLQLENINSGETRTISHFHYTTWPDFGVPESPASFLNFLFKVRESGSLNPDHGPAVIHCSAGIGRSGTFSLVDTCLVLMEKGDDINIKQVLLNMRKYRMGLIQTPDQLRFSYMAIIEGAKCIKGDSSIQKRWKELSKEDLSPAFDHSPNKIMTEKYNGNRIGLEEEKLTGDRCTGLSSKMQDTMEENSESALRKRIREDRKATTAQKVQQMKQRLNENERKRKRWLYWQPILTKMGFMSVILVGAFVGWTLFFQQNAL
In short: as §1

[3] = system: HEK293 cells; assay: Proteomic analysis for degradation selectivity in HEK293 cells; assay type: cell-based; details: 100 nM, 4 hours
Experimental: The proteome-wide degradation selectivity of compound 47 was assessed by performing quantitative mass spectrometry-based proteomic experiments to determine the range of targets degraded by compound 47 in HEK293 cells.

[4] = Blood glucose levels study in mice; assay type: in vivo, mouse
Experimental: Blood glucose levels were measured 24 or 48 hours after injection. No starvation applied. NFD=normal fat diet fed mice. […] Mice were treated with 25 or 50 mg/kg of compound 47 daily through i.p. injection. Blood glucose levels were measured several times before injection during the experiment.
PTP1B and TC-PTP are known to function in concert in regulating both insulin and leptin-mediated cellular processes. The inhibition of PTP1B and TC-PTP was reported to improve insulin sensitivity and glucose homeostasis in diet-induced obese mice. The effect of compound 47 on the glucose levels in mice was evaluated.

[5] = system: PTP1B and TC-PTP; assay: Immunofluorescence of PTP1B and TC-PTP in U2OS cells; assay type: cell-based; details: 1 μM, 3 hours and 24 hours
Experimental: MG132 (20 μM) was used along with compound 47 to block PTP1B and TC-PTP degradation.

COc1cc(CC(=O)N[C@@H](Cc2ccccc2)C(=O)N[C@@H](Cc2ccc(C(F)(F)P(=O)(O)O)cc2)C(=O)N[C@@H](CCCCNC(=O)c2ccc(C)c(Br)c2)C(=O)NCc2cccc(CC(=O)N[C@H](C(=O)N3C[C@H](O)C[C@H]3C(=O)N[C@@H](C)c3ccc(-c4scnc4C)cc3)C(C)(C)C)c2)ccc1O [Compound 47, ((4-((S)-3-(((S)-6-(3-bromo-4-methylbenzamido)-1-((3-(2-(((S)-1-((2S,4R)-4-hydroxy-2-(((S)-1-(4-(4-methylthiazol-5-yl)phenyl)ethyl)carbamoyl)pyrrolidin-1-yl)-3,3-dimethyl-1-oxobutan-2-yl)amino)-2-oxoethyl)benzyl)amino)-1-oxohexan-2-yl)amino)-2-((S)-2-(2-(4-hydroxy-3-methoxyphenyl)acetamido)-3-phenylpropanamido)-3-oxopropyl)phenyl)difluoromethyl)phosphonic Acid] ({Phenylacetyl(4-OH,3-OMe)}-F[F2Pmp]K(Benzoyl(3-Br,4-Me))[NHCH2(1,3-C6H4)CH2CO][Tle][Hyp]-X1)
IC50 [1]: 24.2 ± 1.7 nM
IC50 [2]: 30.1 ± 2.3 nM
proteome-wide degradation selectivity [3]: PTP1B was the only protein whose levels were significantly reduced
blood glucose level ([4]; MC38 tumor mouse model, 25 mg/kg daily i.p.): did not lead to significant reduction in the level of blood glucose
blood glucose level ([4]; MC38 tumor mouse model, 50 mg/kg daily i.p.): slightly reduced blood glucose level
blood glucose level ([4]; high-fat diet (HFD) mice, 15 mg/kg): sufficient to reduce blood glucose level in high-fat diet (HFD) mice to that of normal fat diet fed (NFD) mice
blood glucose level ([4]; high-fat diet (HFD) mice, 50 mg/kg): further reduced glucose levels
PTP1B and TC-PTP degradation by immunofluorescence [5]: degraded cytoplasm-localized PTP1B and both nucleus- and cytoplasm-localized TC-PTP

From patent US20260240878A1, “PTP1B/TC-PTP DUAL INHIBITORS AND PROTEIN DEGRADERS” (Purdue Research Foundation, priority 2023, published 2026)
